Among the data in patent US20250228239A1, “MOLECULES HAVING PESTICIDAL UTILITY, AND INTERMEDIATES, COMPOSITIONS, AND PROCESSES, RELATED THERETO” (priority 2024, published 2025) are pest or weed control, YFM rating and YFM values, retold here.

Where two headings read alike, the source gives them in different places.

Common to all, as to type: in vivo
Experiment [1] deals with Cabbage Looper (Trichoplusia ni, TRIPNI). In words: Bioassays on Cabbage Looper (CL), 128-well diet tray assay. As to conditions: Trichoplusia ni, Cabbage Looper. The essentials: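 Percent mortality, averaged across eight replicate wells, after second-instar larvae (1–5 per well) fed for five to seven days on diet dosed at 50 μg/cm^2. Compound was applied in acetone-water 90:10 and dried; trays kept vented at 25° C under 14:10 photoperiod.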

The subject of experiment [2] is Beet Armyworm (Spodoptera exigua, LAPHEG). The experiment in a line: Bioassays on Beet Armyworm (BAW), 128-well diet tray assay. As to conditions: Spodoptera exigua, Beet Armyworm. Put shortly: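 Mortality of second-instar larvae (1–5/well) on artificial diet treated with 50 μg/cm^2 compound, read after 5–7 days at 25° C.; values are means of eight wells.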
Experiment [3] has as its system Yellow Fever Mosquito (Aedes aegypti, AEDSAE). As to conditions: Yellow Fever Mosquito; for YFM rating: Table ABC / ABC-DP rating; for YFM: rating class. Put shortly: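 Compounds from DMSO master plates (4000 ppm stock) diluted in 90:10 water/acetone, then dispensed into six replicate plates and infested with ~1-day-old Aedes aegypti larvae in liver-powder water. Held covered at room temperature for 3 days; each well scored for larval mortality and graded on a rating scale.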

Where [4] appears, read: Table ABC / ABC-DP rating, read-out: CL rating.
The mark [5] stands for this setting: Table ABC / ABC-DP rating, read-out: BAW rating.

Take `O=C(CCC(F)(C(F)(F)F)C(F)(F)F)Nc1c(F)ccc(NC(=O)c2cc(NC(=O)[C@H]3[C@H](c4ccc(F)c(C(F)(F)F)c4)C3(Cl)Cl)ccc2Cl)c1F` [F1829, 2-Chloro-5-((1R,3R)-2,2-dichloro-3-(4-fluoro-3-(trifluoromethyl)phenyl)cyclopropane-1-carboxamido)-N-(2,4-difluoro-3-(4,5,5,5-tetrafluoro-4-(trifluoromethyl)pentanamido)phenyl)benzamide]: the pest or weed control at 50 µg/cm2 in experiment [1] (setting [4]) and in experiment [2] (setting [5]) was 50 to 100% throughout. Besides, the YFM rating entry in experiment [3] is “A (80–100)”.
On to `CCOCCC(=O)Nc1c(F)ccc(NC(=O)c2cc(NC(=O)[C@H]3[C@H](c4ccc(Cl)c(Cl)c4)C3(Cl)Cl)ccc2Cl)c1F` [F1419, 2-Chloro-5-((1R,3R)-2,2-dichloro-3-(3,4-dichlorophenyl)cyclopropane-1-carboxamido)-N-(3-(3-ethoxypropanamido)-2,4-difluorophenyl)benzamide], for which the pest or weed control at 50 µg/cm2 in experiment [1] (rating class, read-out: CL) lay in the range of 50 to 100%; in experiment [2] (rating class, read-out: BAW), 50 to 100%. Further, the YFM entry in experiment [3] is given as “A (80–100)”.
`CC(OC(F)(F)F)C(=O)Nc1c(F)ccc(NC(=O)c2cc(NC(=O)[C@H]3[C@H](c4ccc(F)c(Cl)c4)C3(Cl)Cl)ccc2Cl)c1F` (stereo partly drawn) [F1769, 2-Chloro-5-((1R,3R)-2,2-dichloro-3-(3-chloro-4-fluorophenyl)cyclopropane-1-carboxamido)-N-(2,4-difluoro-3-(2-(trifluoromethoxy)propanamido)phenyl)benzamide]: the pest or weed control at 50 µg/cm2 in experiment [1] (setting [4]) and in experiment [2] (setting [5]) was 50 to 100% throughout. For the same compound, the YFM rating entry in experiment [3] is given as “A (80–100)”.
For the compound `C#CCC(=O)N(CC)c1c(F)ccc(NC(=O)c2cc(NC(=O)[C@H]3[C@H](c4ccc(F)c(C(F)(F)F)c4)C3(Cl)Cl)ccc2Cl)c1F` [F1763], the pest or weed control at 50 µg/cm2 in experiment [1] (rating class, read-out: CL) fell in the range of 50 to 100%; in experiment [2] (rating class, read-out: BAW), 50 to 100%. Further, the YFM result in experiment [3] is “A (80–100)”.
Consider `Cc1c(F)c(NC(=O)c2cc(NC(=O)[C@H]3[C@H](c4ccc(F)c(C(F)(F)F)c4)C3(Cl)Cl)ccc2Cl)cc(NC(=O)C(F)F)c1F` [F1680, 2-Chloro-5-((1R,3R)-2,2-dichloro-3-(4-fluoro-3-(trifluoromethyl)phenyl)cyclopropane-1-carboxamido)-N-(5-(2,2-difluoroacetamido)-2,4-difluoro-3-methylphenyl)benzamide], for which the pest or weed control at 50 µg/cm2 is 50 to 100% in experiment [1] (rating class, read-out: CL) and 50 to 100% in experiment [2] (rating class, read-out: BAW). For the same compound, in experiment [3], the YFM result is recorded as “B (More than 0 – Less than 80)”.
With `CC(=O)Nc1ccc(F)c(NC(=O)c2cc(NC(=O)[C@H]3[C@H](c4cc(Cl)c(Cl)c(Cl)c4)C3(Cl)Cl)ccc2F)c1F` [F1556, N-(3-Acetamido-2,6-difluorophenyl)-5-((1R,3R)-2,2-dichloro-3-(3,4,5-trichlorophenyl)cyclopropane-1-carboxamido)-2-fluorobenzamide], the pest or weed control at 50 µg/cm2 in experiment [1] (rating class, read-out: CL) is 50 to 100%; in experiment [2] (rating class, read-out: BAW), 50 to 100%. The YFM entry in experiment [3] is reported as “A (80–100)”.
On to `CN(NC(=O)c1cc(NC(=O)[C@H]2[C@H](c3cc(Cl)c(Cl)c(Cl)c3)C2(Cl)Cl)ccc1Cl)c1ccccc1` [F2511, (1R,3R)-2,2-Dichloro-N-(4-chloro-3-(2-methyl-2-phenylhydrazine-1-carbonyl)phenyl)-3-(3,4,5-trichlorophenyl)cyclopropane-1-carboxamide], for which the pest or weed control at 50 µg/cm2 in experiment [1] (setting [4]) and in experiment [2] (setting [5]) was 50 to 100% in each case. Moreover, the YFM rating entry in experiment [3] is reported as “A (80–100)”.
